Measurements reported in patent US20240360194A1, “New Peptides as Potent and Selective GIP Receptor Agonists” (Sanofi, priority 2021, published 2024).
≈ marks a conversion by molar mass, not a printed value. Numbered stars: 1 amine (or outer) side, 2 acyl side, 3 side chain; on linkers, the order of the positions; unused ones are H or OH. Square brackets hold non-standard residues; d marks the D form. Side chains are listed from the residue outwards. Peptide text beside a SMILES is read from it. * marks the point of attachment. C18 diacid = O=C(O)CCCCCCCCCCCCCCCCC(=O)*; γGlu = O=C(O)[C@H](CCC(=O)[*:2])N[*:1]; AEEA = NCCOCCOCC(=O)O; Aib = CC(C)(N)C(=O)O

Legend:
[1] = Solubility assessment (UHPLC-UV of supernatant, target 10 mg/ml); type: physicochemical
Summary of the method: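 Peptides at 10 mg/ml (purity-corrected) in 100 mM phosphate pH 7.4, optionally with 2.7 mg/ml m-cresol; gentle agitation 1 h, then 5° C. overnight (24 h). Supernatant after 15 min centrifugation at 2500 RCF quantified by UHPLC-UV, with sequence-based extinction coefficients.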

[2] = Pharmacokinetic evaluation in rats; type: in vivo; conditions: male, SD, rat, in vivo
Description: (§1) Compounds were administered in a suitable buffer system, e.g. PBS buffer solution at pH7.4 or DPBS solution at concentrations of 0.05, 0.1, 0.5 or 1 mg/ml depending on dose, species and administration volume. Male SD rats were dosed 0.25 mg/kg, 0.5 mg/kg or 1 mg/kg intravenously (i.v.) or subcutaneously (s.c.). Blood samples were collected after 0.08, 0.25, 0.5, 1, 2, 4, 8, 24, 32, and 48 h post i.v. application and 0.25, 0.5, 1, 2, 4, 8, 24, 32, and 48 h post s.c. application, respectively. Plasma samples were analysed after protein precipitation via liquid chromatography mass spectrometry (LC/MS). PK parameters and half-life were calculated using Phoenix-WinNonlin 8.1 using a non-compartmental model and linear trapezoidal interpolation calculation. Pharmacokinetic profiles were determined as described in Methods.

[3] = Pharmacokinetic evaluation in mice; type: in vivo, female C57Bl/6 mice; conditions: in vivo
Description: as §1, with “Female C57Bl/6 mice” for “Male SD rats”, “The mice were sacrificed, and blood” for “Blood”

[4] = target: T1, human GIP receptor (hGIPR) (Homo sapiens, UniProt P48546); assay: In vitro cellular cAMP assay for GIP receptor efficacy (HEK-293 cell line over-expressing receptor); type: cell-based; conditions: EC50 hGIPR 0.1% BSA, HEK-293, 0.1% BSA
T1 sequence (P48546 22-466): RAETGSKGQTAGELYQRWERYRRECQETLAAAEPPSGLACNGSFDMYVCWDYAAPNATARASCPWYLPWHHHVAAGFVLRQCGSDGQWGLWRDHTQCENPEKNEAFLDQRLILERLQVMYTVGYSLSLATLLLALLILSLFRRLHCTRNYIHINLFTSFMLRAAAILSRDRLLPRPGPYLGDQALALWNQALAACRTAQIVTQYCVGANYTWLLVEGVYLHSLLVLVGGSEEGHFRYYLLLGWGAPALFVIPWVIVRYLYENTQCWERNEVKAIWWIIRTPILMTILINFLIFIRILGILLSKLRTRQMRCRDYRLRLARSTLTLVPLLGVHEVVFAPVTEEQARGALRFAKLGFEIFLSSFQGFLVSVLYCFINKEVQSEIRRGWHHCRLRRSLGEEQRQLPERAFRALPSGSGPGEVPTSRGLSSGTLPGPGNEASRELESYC

[5] = Chemical stability assessment (UHPLC-UV purity loss on storage in solution); type: physicochemical; conditions: Chemical stability buffer system A: 20 mM phosphate buffer pH 7.4; ~300 μM
Description: Purity of a peptide batch was determined through UHPLC/MS prior to chemical stability measurement. The target concentration was 300 μM pure compound. Solutions from solid samples were prepared in the following buffer systems with a concentration of ˜300 μM compound based on the previously determined % purity: • Chemical stability buffer system A) 20 mM phosphate buffer pH 7.4, • Chemical stability buffer system B) 8 mM phosphate buffer pH 7.4, 14 mg/ml propylene glycol, 5.5 mg/ml phenol • Chemical stability buffer system C) 100 mM phosphate buffer pH 7.4, 2.7 mg/ml m-cresol
Prepared solutions were filtered through […] pore size and filled into sterilized glass containers under laminar flow conditions.
Glass containers were stored for 28 days at 5 and 40° C. After this time, the samples were centrifuged for 15 min at 2500 RCF. Then 1.5 μl of the undiluted supernatant were analysed with UHPLC-UV.
The chemical stability was rated through the relative loss of purity calculated by the equation: […]
The purity is calculated as
The analytical methods used were Analytical UHPLC Method B or C.
Peptide samples were prepared in Chemical stability buffer system A or B and stability was assessed as described in Methods.

[6] = female, C57Bl/6, mouse, iv, 0.25 mg/kg
[7] = female, C57Bl/6, mouse, sc, 0.5 mg/kg

SMILES	AUC(0-t) ([2]; iv, 0.25 mg/kg)	Cmax ([2]; iv, 0.25 mg/kg)	clearance ([2]; iv, 0.25 mg/kg)	half-life ([2]; iv, 0.25 mg/kg)	AUC(0-t) ([2]; sc, 0.5 mg/kg)	Cmax ([2]; sc, 0.5 mg/kg)	bioavailability ([2]; sc, 0.5 mg/kg)	half-life ([2]; sc, 0.5 mg/kg)	also measured
CC[C@H](C)[C@H](NC(=O)[C@H](CCCNC(=N)N)NC(=O)[C@H](CCC(=O)O)NC(=O)[C@H](CCCCNC(=O)COCCOCCNC(=O)COCCOCCNC(=O)CC[C@H](NC(=O)CCCCCCCCCCCCCCCCC(=O)O)C(=O)O)NC(=O)C(C)(C)NC(=O)[C@@H](NC(=O)[C@H](CO)NC(=O)[C@H](CC(C)C)NC(=O)[C@H](CC(=O)O)NC(=O)[C@H](CO)NC(=O)[C@@H](NC(=O)[C@H](Cc1ccccc1)NC(=O)[C@@H](NC(=O)CNC(=O)[C@H](CCC(=O)O)NC(=O)C(C)(C)NC(=O)[C@@H](N)Cc1ccc(O)cc1)[C@@H](C)O)[C@@H](C)CC)[C@@H](C)CC)C(=O)N[C@@H](Cc1c[nH]cn1)C(=O)N[C@@H](CCC(N)=O)C(=O)NC(C)(C)C(=O)N[C@@H](CCC(=O)O)C(=O)N[C@@H](Cc1ccccc1)C(=O)N[C@H](C(=O)N[C@@H](CCC(=O)O)C(=O)N[C@@H](Cc1c[nH]c2ccccc12)C(=O)N[C@@H](CC(C)C)C(=O)N[C@@H](CC(C)C)C(=O)N[C@@H](C)C(=O)N[C@@H](CCC(N)=O)C(=O)NCC(=O)N1CCC[C@H]1C(=O)N[C@@H](CO)C(=O)N[C@@H](CO)C(=O)NCC(=O)N[C@@H](C)C(=O)N1CCC[C@H]1C(=O)N1CCC[C@H]1C(=O)N1CCC[C@H]1C(=O)N[C@@H](CO)C(N)=O)[C@@H](C)CC [SEQ ID NO: 21, H2N-Y-Aib-E-G-T-F-I-S-D-L-S-I-Aib-K[{AEEA}2-gGlu-C18OH]-E-R-I-H-Q-Aib-E-F-I-E-W-L-L-A-Q-G-P-S-S-G-A-P-P-P-S-NH2] (H-Y[Aib]EGTFISDLSI[Aib]K([AEEA-AEEA-γGlu-C18 diacid])ERIHQ[Aib]EFIEWLLAQGPSSGAPPPS-NH2)	25800 ng·h/mL	1020 ng/mL	0.151 mL/min/kg	12.9 h	33900 ng·h/mL	1020 ng/mL	68%	12.1 h	Soluble amount ([1]; 24 h, pH 7.4): >10.0 mg/mL; solubility at 24 h ([1]; pH 7.4, Soluble amount): 10100 µg/mL (≈ 2030 µM)
CC[C@H](C)[C@H](NC(=O)[C@H](CCCNC(=N)N)NC(=O)[C@H](CC(=O)O)NC(=O)[C@H](CCCCNC(=O)COCCOCCNC(=O)COCCOCCNC(=O)CC[C@H](NC(=O)CCCCCCCCCCCCCCCCC(=O)O)C(=O)O)NC(=O)C(C)(C)NC(=O)[C@@H](NC(=O)[C@H](CO)NC(=O)[C@H](CC(C)C)NC(=O)[C@H](CC(=O)O)NC(=O)[C@H](CO)NC(=O)[C@@H](NC(=O)[C@@](C)(CC)NC(=O)[C@@H](NC(=O)CNC(=O)[C@H](CCC(=O)O)NC(=O)C(C)(C)NC(=O)[C@@H](N)Cc1ccc(O)cc1)[C@@H](C)O)[C@@H](C)CC)[C@@H](C)CC)C(=O)N[C@@H](Cc1c[nH]cn1)C(=O)N[C@@H](CCC(N)=O)C(=O)NC(C)(C)C(=O)N[C@@H](CCC(=O)O)C(=O)N[C@@H](Cc1ccccc1)C(=O)N[C@H](C(=O)N[C@@H](CCC(=O)O)C(=O)N[C@@H](Cc1c[nH]c2ccccc12)C(=O)N[C@@H](CC(C)C)C(=O)N[C@@H](CC(C)C)C(=O)N[C@@H](C)C(=O)N[C@@H](CCC(N)=O)C(=O)N[C@@H](CCCNC(=N)N)C(=O)NCC(N)=O)[C@@H](C)CC [SEQ ID NO: 16, H2N-Y-Aib-E-G-T-Iva-I-S-D-L-S-I-Aib-K[{AEEA}2-gGlu-C18OH]-D-R-I-H-Q-Aib-E-F-I-E-W-L-L-A-Q-R-G-NH2]	41500 ng·h/mL	7050 ng/mL	0.0957 mL/min/kg	11.5 h	43900 ng·h/mL	1720 ng/mL	55%	10.8 h	AUC(0-t) [3, 6]: 27300 ng·h/mL; Cmax [3, 6]: 5040 ng/mL; clearance [3, 6]: 0.151 mL/min/kg; half-life [3, 6]: 7.33 h; AUC(0-t) [3, 7]: 82500 ng·h/mL; Cmax [3, 7]: 4590 ng/mL; half-life [3, 7]: 5.69 h; F ([3]; mouse, sc, 0.5 mg/kg): 150%; solubility ([1]; pH 7.4, Soluble amount): 5400 µg/mL (≈ 1260 µM); EC50 [4]: 0.0243 nM
CC[C@H](C)[C@H](NC(=O)[C@H](Cc1ccccc1)NC(=O)[C@H](CCC(=O)O)NC(=O)C(C)(C)NC(=O)[C@H](CCC(N)=O)NC(=O)[C@H](Cc1c[nH]cn1)NC(=O)C(C)(C)NC(=O)[C@H](CCCNC(=N)N)NC(=O)[C@H](CC(=O)O)NC(=O)[C@H](CCCCNC(=O)COCCOCCNC(=O)COCCOCCNC(=O)CC[C@H](NC(=O)CCCCCCCCCCCCCCCCC(=O)O)C(=O)O)NC(=O)C(C)(C)NC(=O)[C@@H](NC(=O)[C@H](CO)NC(=O)[C@H](CC(C)C)NC(=O)[C@H](CC(=O)O)NC(=O)[C@H](CO)NC(=O)[C@@H](NC(=O)[C@H](Cc1ccccc1)NC(=O)[C@@H](NC(=O)CNC(=O)[C@H](CCC(=O)O)NC(=O)C(C)(C)NC(=O)[C@@H](N)Cc1ccc(O)cc1)[C@@H](C)O)[C@@H](C)CC)[C@@H](C)CC)C(=O)N[C@@H](CCC(=O)O)C(=O)N[C@@H](Cc1c[nH]c2ccccc12)C(=O)N[C@@H](CC(C)C)C(=O)N[C@@H](CC(C)C)C(=O)N[C@@H](C)C(=O)N[C@@H](CCC(N)=O)C(=O)N[C@@H](CCCNC(=N)N)C(=O)N1CCC[C@H]1C(=O)N[C@@H](CO)C(=O)N[C@@H](CO)C(=O)NCC(=O)N[C@@H](C)C(=O)N1CCC[C@H]1C(=O)N1CCC[C@H]1C(=O)N1CCC[C@H]1C(=O)N[C@@H](CO)C(N)=O [SEQ ID NO: 22, H2N-Y-Aib-E-G-T-F-I-S-D-L-S-I-Aib-K[{AEEA}2-gGlu-C18OH]-D-R-Aib-H-Q-Aib-E-F-I-E-W-L-L-A-Q-R-P-S-S-G-A-P-P-P-S-NH2] (H-Y[Aib]EGTFISDLSI[Aib]K([AEEA-AEEA-γGlu-C18 diacid])DR[Aib]HQ[Aib]EFIEWLLAQRPSSGAPPPS-NH2)	40200 ng·h/mL	6030 ng/mL	0.0955 mL/min/kg	13.6 h	49900 ng·h/mL	1320 ng/mL	69%	15.5 h	Relative purity loss over 28 days at 40° C. [5]: 6.1%
